Assay results reported in patent US20230132202A1, “Polymeric Binder and High Molecular Weight Polymer Antifouling Compositions” (The University of British Columbia, priority 2020, published 2023).

How the values were obtained:
[1] = cited from earlier work
[2] = Drug release measurements from coated silicon wafers, UV-Vis; assay type: physicochemical
Protocol: Drug release measurements: The coated silicon wafers were added into the wells of 96 well-plate and immersed in PBS buffer (200 μL) was added to each well. At day 1 and day 7, the solution was collected and the drug concentration was measured using UV-Vis spectroscopy and standard curves prepared using pure bioactive agents. The released solution was diluted to 1 mL using PBS before the measurements.

[3] = cited from earlier work; remark: listed apart in the source
[4] = day 1, coated silicon wafer in PBS
[5] = day 7, coated silicon wafer in PBS

| Molecule | Water solubility [1] [mg/mL] | concentration of eluted drug [2, 4] | concentration of eluted drug [2, 5] | Net charge at pH 7.4 [3] |
| --- | --- | --- | --- | --- |
| CC(=O)O[C@@]12CO[C@@H]1C[C@H](O)[C@@]1(C)C(=O)[C@H](O)C3=C(C)[C@@H](OC(=O)[C@H](O)[C@@H](NC(=O)OC(C)(C)C)c4ccccc4)C[C@@](O)([C@@H](OC(=O)c4ccccc4)[C@H]21)C3(C)C [Docetaxel] | <0.01 | 12.5 ppm (microgram/mL) | 13.7 ppm (microgram/mL) | Neutral |
| CC(=O)O[C@H]1C(=O)[C@@]2(C)[C@H]([C@H](OC(=O)c3ccccc3)[C@]3(O)C[C@H](OC(=O)[C@H](O)[C@@H](NC(=O)c4ccccc4)c4ccccc4)C(C)=C1C3(C)C)[C@]1(OC(C)=O)CO[C@@H]1C[C@@H]2O [Paclitaxel] |  | 1.3 ppm (microgram/mL) | 1.4 ppm (microgram/mL) |  |
| CO[C@H]1/C=C/O[C@@]2(C)Oc3c(C)c(O)c4c(O)c(c(/C=N/N5CCN(C)CC5)c(O)c4c3C2=O)NC(=O)/C(C)=C\C=C\[C@H](C)[C@H](O)[C@@H](C)[C@@H](O)[C@@H](C)[C@H](OC(C)=O)[C@@H]1C [Rifampicin] | 0.0413 |  |  |  |
| NC[C@H]1O[C@H](O[C@H]2[C@H](O)[C@@H](O[C@H]3O[C@H](CO)[C@@H](O)[C@H](N)[C@H]3O)[C@H](N)C[C@@H]2N)[C@H](N)C[C@@H]1O [Tobramycin] | 53.7 |  |  | Neutral |
| Gentamicin |  |  |  | Neutral |
| Penicillin | >30 |  |  | Neutral |
